Experimental findings from patent publication US8586588B2, “Aryl pyridazinone derivatives and their use as H3 receptor ligands” (Cephalon, Inc., priority 2006, dated 2013) are described below.

Where a name gives a salt, the structure may show the parent alone.

`CC1CC(=O)N(c2ccccn2)N=C1c1ccc(OC2CCN(C3CCC3)CC2)cc1` (stereo not shown) (as salt: HCl) [Example 193, 6-[4-(1-Cyclobutyl-piperidin-4-yloxy)-phenyl]-5-methyl-2-pyridin-2-yl-4,5-dihydro-2H-pyridazin-3-one] showed a melting point of 143 to 145 °C.

In turn, `Cc1cc(OCCCN2CCC[C@H]2C)ccc1C1=NNC(=O)CC1` (as salt: HCl) [Example 199, 6-{(R)-2-Methyl-4-[3-(2-methyl-pyrrolidin-1-yl)-propoxy]-phenyl}-4,5-dihydro-2H-pyridazin-3-one] registered a melting point of 121 to 123 °C. Next, `C[C@@H]1CCCN1CCCOc1ccc2c(c1)CCc1cc(=O)[nH]nc1-2` (as salt: HCl) [Example 209, 8-[3-((R)-2-Methyl-pyrrolidin-1-yl)-propoxy]-5,6-dihydro-2H-benzo[h]cinnolin-3-one]: 289 to 292 °C; `C[C@@H]1CCCN1CCCOc1ccc2c(c1)CCC1CC(=O)NN=C21` (stereo partly shown) (as salt: HCl) [Example 212, 8-[3-(2-Methyl-pyrrolidin-1-yl)-propoxy]-4,4a,5,6-tetrahydro-2H-benzo[h]cinnolin-3-one]: 193 to 195 °C; `O=C1CCC(c2ccc(OC3CCN(C4CCC4)CC3)cc2F)=NN1` (as salt: HCl) [Example 219, 6-[4-(1-Cyclobutyl-piperidin-4-yloxy)-2-fluoro-phenyl]-4,5-dihydro-2H-pyridazin-3-one]: greater than 300 °C. The value for `COCn1ncc(-c2ccc(OCCCN3CCC[C@H]3C)cc2C)cc1=O` (as salt: HCl) [Example 230, 2-Methoxymethyl-5-{2-methyl-4-[3-((R)-2-methyl-pyrrolidin-1-yl)-propoxyl]-phenyl}-2H-pyridazin-3-one] was 139 to 140.5 °C; that for `Cc1cc(OCCCN2CCC[C@H]2C)ccc1-c1cn[nH]c(=O)c1` (as salt: HCl) [Example 231, 5-{2-methyl-4-[3-((R)-2-methyl-pyrrolidin-1-yl)-propoxyl]-phenyl}-2H-pyridazin-3-one] was 186 to 188 °C; that for `COCn1ncc(-c2ccc(OCCCN3CCCCC3)cc2C)cc1=O` (as salt: HCl) [Example 232, 2-Methoxymethyl-5-[2-methyl-4-(3-piperidin-1-yl-propoxy)-phenyl]-2H-pyridazin-3-one] was 185 to 197 °C (dec.). The molecule `COCn1ncc(-c2ccc(OC3CCN(C4CCC4)CC3)cc2C)cc1=O` (as salt: HCl) [Example 234, 5-[4-(1-Cyclobutyl-piperidin-4-yloxy)-2-methyl-phenyl]-2-methoxymethyl-2H-pyridazin-3-one] displayed a melting point of 119.5 to 123.5 °C. The value for `CCN1N=C(c2ccc(OC3CCN(C4CCC4)CC3)cc2)C2CC2C1=O` (stereo not shown) (as salt: HCl) [Example 250, 5-[4-(1-Cyclobutyl-piperidin-4-yloxy)-phenyl]-3-ethyl-3,4-diaza-bicyclo[4.1.0]hept-4-en-2-one] was 246 to 248 °C; that for `CN1N=C(c2ccc(OC3CCN(C4CCC4)CC3)cc2)C2CC2C1=O` (stereo not shown) (as salt: HCl) [Example 252, 5-[4-(1-Cyclobutyl-piperidin-4-yloxy)-phenyl]-3-methyl-3,4-diaza-bicyclo[4.1.0]hept-4-en-2-one] was 243 to 245 °C.

Turning to `O=C1C2CC2C(c2ccc(OC3CCN(C4CCC4)CC3)cc2)=NN1c1ccc(F)cc1` (stereo not shown) (as salt: HCl) [Example 253, 5-[4-(1-Cyclobutyl-piperidin-4-yloxy)-phenyl]-3-(4-fluoro-phenyl)-3,4-diaza-bicyclo[4.1.0]hept-4-en-2-one], the melting point fell in the range of 147 to 149 °C. The value for `O=C1C2CC2C(c2ccc(OC3CCN(C4CCC4)CC3)cc2)=NN1CC(F)(F)F` (stereo not shown) (as salt: HCl) [Example 254, 5-[4-(1-Cyclobutyl-piperidin-4-yloxy)-phenyl]-3-(2,2,2-trifluoro-ethyl)-3,4-diaza-bicyclo[4.1.0]hept-4-en-2-one] was 110 to 121 °C. As to `CN1N=C(c2ccc(OC3CCN(C4CCCC4)CC3)cc2)C2CC2C1=O` (stereo not shown) (as salt: HCl) [Example 260, 5-[4-(1-Cyclopentyl-piperidin-4-yloxy)-phenyl]-3-methyl-3,4-diaza-bicyclo[4.1.0]hept-4-en-2-one], the melting point is 264 to 266 °C.

As for `O=C1NN=C(c2ccc(OC3CCN(C4CCCC4)CC3)cc2)C2CC12` (stereo not shown) (as salt: HCl) [Example 261, 5-[4-(1-Cyclopentyl-piperidin-4-yloxy)-phenyl]-3,4-diaza-bicyclo[4.1.0]hept-4-en-2-one], the melting point was 288 to 290 °C. The molecule `Cc1ccc(=O)n(-c2ccc(OCCCN3CCC[C@H]3C)cc2)n1` (as salt: fumarate) [Example 201, 6-Methyl-2-{4-[3-((R)-2-methyl-pyrrolidin-1-yl)-propoxy]-phenyl}-2H-pyridazin-3-one] displayed a melting point of 168 to 170 °C. The value for `O=c1ccc(-c2ccccc2)nn1-c1ccc(OC2CCN(C3CCC3)CC2)nc1` (as salt: fumarate) [Example 203, 2-[6-(1-Cyclobutyl-piperidin-4-yloxy)-pyridin-3-yl]-6-phenyl-2H-pyridazin-3-one] was 155 to 159 °C.

`C[C@@H]1CCCN1CCCOc1ccc(-n2nc(C3CC3)ccc2=O)cc1` (as salt: fumarate) [Example 262, 6-Cyclopropyl-2-{4-[3-((R)-2-methyl-pyrrolidin-1-yl)-propoxy]-phenyl}-2H-pyridazin-3-one] returned a melting point of 51 to 55 °C. In turn, `C[C@@H]1CCCN1CCCOc1ccc2cnn(C)c(=O)c2c1` (as salt: hydrochloride) [Example 79, 2-Methyl-7-[3-((R)-2-methyl-pyrrolidin-1-yl)-propoxy]-2H-phthalazin-1-one] yielded a melting point of 252 to 253 °C.

On to `Cc1nn(C)c(=O)cc1-c1ccc(OCCCN2CCCCC2)cc1` (as salt: hydrochloride) [Example 87, 2,6-Dimethyl-5-[4-(3-piperidin-1-yl-propoxy)-phenyl]-2H-pyridazin-3-one], for which the melting point is 210 to 211 °C. The value for `Cc1n[nH]c(=O)cc1-c1ccc(OCCCN2CCC[C@H]2C)cc1` (as salt: hydrochloride) [Example 88, 6-Methyl-5-{4-[3-((R)-2-methyl-pyrrolidin-1-yl)-propoxy]-phenyl}-2H-pyridazin-3-one] was 115 °C (dec.); that for `Cc1n[nH]c(=O)cc1-c1ccc(OCCCN2CCCCCC2)cc1` (as salt: hydrochloride) [Example 90, 5-[4-(3-Azepan-1-yl-propoxy)-phenyl]-6-methyl-2H-pyridazin-3-one] was 204 to 206 °C. Next, `C[C@@H]1CCCN1CCCOc1ccc(-c2cnn(C)c(=O)c2)cc1` (as salt: hydrochloride) [Example 91, 2-Methyl-5-{4-[3-((R)-2-methyl-pyrrolidin-1-yl)-propoxy]-phenyl}-2H-pyridazin-3-one]: 222 to 223 °C; `Cn1ncc(-c2ccc(OCCCN3CCCCC3)cc2)cc1=O` (as salt: hydrochloride) [Example 92, 2-Methyl-5-[4-(3-piperidin-1-yl-propoxy)-phenyl]-2H-pyridazin-3-one]: 253 to 254 °C; `Cn1ncc(-c2ccc(OCCCN3CCCCCC3)cc2)cc1=O` (as salt: hydrochloride) [Example 93, 5-[4-(3-Azepan-1-yl-propoxy)-phenyl]-2-methyl-2H-pyridazin-3-one]: 247 to 248 °C.

Molecule `O=c1cc(-c2ccc(OCCCN3CCCCC3)cc2)cn[nH]1` (as salt: hydrochloride) [Example 97] returned a melting point of 249 to 250 °C. `Cc1cccnc1-n1ncc(-c2ccc(OCCCN3CCC[C@H]3C)cc2)cc1=O` (as salt: hydrochloride) [Example 99, 2-(3-Methyl-pyridin-2-yl)-5-{4-[3-((R)-2-methylpyrrolidin-1-yl)-propoxy]-phenyl}-2H-pyridazin-3-one] displayed a melting point of 98 to 100 °C. With `Cc1nn(-c2ccccn2)c(=O)cc1-c1ccc(OCCCN2CCC[C@H]2C)cc1` (as salt: hydrochloride) [Example 100, 6-Methyl-5-{4-[3-((R)-2-methyl-pyrrolidin-1-yl)-propoxy]-phenyl}-2-pyridin-2-yl-2H-pyridazin-3-one], the melting point lay in the range of 155 to 157 °C. On to `Cc1cccnc1-n1nc(C)c(-c2ccc(OCCCN3CCC[C@H]3C)cc2)cc1=O` (as salt: hydrochloride) [Example 101, 6-Methyl-2-(3-methyl-pyridin-2-yl)-5-{4-[3-((R)-2-methyl-pyrrolidin-1-yl)-propoxy]-phenyl}-2H-pyridazin-3-one], for which the melting point was 106 °C (dec.). Regarding `C[C@@H]1CCCN1CCCOc1ccc(C2=NNC(=O)CC2c2ccccn2)cc1` (stereo partly drawn) (as salt: hydrochloride) [Example 111, 6-{4-[3-((R)-2-Methyl-pyrrolidin-1-yl)-propoxy]-phenyl}-5-pyridin-2-yl-4,5-dihydro-2H-pyridazin-3-one], the melting point is 133 °C (dec.). For `C[C@@H]1CCCN1CCCOc1ccc(-c2n[nH]c(=O)cc2-c2ccccn2)cc1` (as salt: hydrochloride) [Example 112, 6-{4-[3-((R)-2-Methyl-pyrrolidin-1-yl)-propoxy]-phenyl}-5-pyridin-2-yl-2H-pyridazin-3-one], the melting point was 234 °C (dec.). `O=c1cc(-c2ccc(OC3CCN(C4CCC4)CC3)nc2)cn[nH]1` (as salt: hydrochloride) [Example 117, 5-[6-(1-Cyclobutyl-piperidin-4-yloxy)-pyridin-3-yl]-2H-pyridazin-3-one] showed a melting point of 232 to 234 °C. Next, `C[C@@H]1CCCN1CCCOc1ccc(-c2ccc(=O)n(CCF)n2)cc1` (as salt: hydrochloride) [Example 118, 2-(2-Fluoro-ethyl)-6-{4-[3-((R)-2-methyl-pyrrolidin-1-yl)-propoxy]-phenyl}-2H-pyridazin-3-one]: 135 to 136 °C; `COc1cn[nH]c(=O)c1-c1ccc(OCCCN2CCC[C@H]2C)cc1` (as salt: hydrochloride) [Example 237, 5-Methoxy-4-{4-[3-((R)-2-methyl-pyrrolidin-1-yl)-propoxy]-phenyl}-2H-pyridazin-3-one]: 135 to 140 °C.

As usually defined, the melting point is the temperature of the solid-liquid transition.
